One assay concerns Male Hartley guinea pigs. Kind of assay: Mean arterial pressure lowering in conscious sodium-depleted guinea pigs, i.v. dosing. As to conditions: trapezoidal method. On the set-up: unit not given beside the values. Format: in vivo, guinea pig. The method, then:
Male Hartley guinea pigs weighing between 250 and 300 g were obtained from Charles River Laboratories, Lakeview, New Jersey. The guinea pigs were allowed to acclimate to their environment for at least two weeks. Then, they were placed on a low sodium diet (Purina Modified Guinea Pig Chow, no sodium added) for 14 days and were given injections of furosemide (Lasix® 2 mg/kg, i.m.) on three non-consecutive days. At least 24 hours prior to experimentation, the animals were anesthetized with xylazine (Rompune, 10 mg/kg, s.c.) and ketamine (Vetalar®, 80 mg/kg, i.m.) and, using aseptic technique, cannulae (PE-50) were implanted into the aorta via the right carotid artery for direct measurement of mean arterial pressure (MAP). Cannulae (PE-50) were also placed into the left jugular vein for intravenous compound administration. Both catheters were exteriorized at the intrascapular region of the animal's back and flushed with a heparinized dextrose solution. To prevent the formation of clots, each cannula was filled with heparin at a concentration of 1000 units/ml. After surgery, an antibacterial, trimethoprim/sulfamethoxazole (Di-Trim®, 30 mg/kg, s.c.), was given to the animals. The animals were allowed to recover with water and no-sodium chow administered ad libitum. On the day of the experiment, each guinea pig was given an additional injection of furosemide (6 mg/kg, i.m.) to accelerate sodium loss and was placed in a sound-proof, ventilated box with one-way glass for observation. Mean arterial pressure was monitored with a Statham 23DB strain gauge pressure transducer previously calibrated using a mercury manometer. The arterial pressure waveform and derived heart rate were continuously recorded on a Grass Model 7D oscillograph. Arterial pressure waveform samples were obtained approximately every 20 seconds using an IBM PS/2 model 30 computer equipped with a custom algorithm designed to calculate mean arterial pressure from the integrated waveform. Values were obtained for a period of at least one hour prior to and 2 hours (usually 4 hours) after dosing. The test compounds were infused intravenously followed by a 250 μl flush with heparinized dextrose solution.
Dose response curves for the renin inhibitor (RI) (0.3 to 3.0 mg/kg, i.v.) and captopril (0.03 to 1.0 mg/kg, i.v.) were obtained (n =4 to 8) in order to quantitate baseline responses to each drug. In experiments where the renin inhibitor and captopril were co-administered, the renin inhibitor was given first immediately followed by captopril. Doses of renin inhibitor and angiotensin converting enzyme inhibitor, when given together, were chosen on the basis of causing submaximal hypotensive effects. Therefore, the contributory effect of each drug could be quantitated by integration and compared to the expected effect to determine whether additive or synergistic responses had occurred.
Employing the procedure described above, the changes in mean arterial pressure (AMAP) for the renin inhibitor (RI), the ACE inhibitor (captopril) and the renin inhibitor (RI), plus the ACE inhibitor (captopril) were obtained for various doses and are shown in Table I, below. The AOC-MAP is the area over the dose response curve for each dose calculated using the trapezoidal method.
The data in Table I were obtained by averaging the A MAP of all animals for each dose prior to calculating the AOC-MAP. When the data contained in Table I was reviewed for the purpose of calculating the AOC-MAP by averaging the area over the dose response curve for each animal per dose, it was discovered that the AOC-MAP for 0.5 mg/kg RI plus 0.05 mg/kg captopril inadvertently reflected the data based on only three of the six subject test animals. Shown below in Table II are the AOC-MAP data for the experiments reported in Table I, which data is now the result of determining the area over the dose response curve for each animal per dose and averaging the AOC-MAP, as well as determining the standard deviation. […]

The conditions of assay [1]: Oldham et al., J. Cardiovasc. Pharmacol. 6: 672-677 (1984); cited from earlier work.
[2] abbreviates: Table I, 0.3 mg/kg i.v., area over curve from MAP change averaged over all animals per dose.
[3] abbreviates: Table I, 1.0 mg/kg i.v., area over curve from MAP change averaged over all animals per dose.
The mark [4] stands for this setting: Table II, 0.3 mg/kg i.v., average of area per animal (± standard deviation).
Setting [5] is: Table II, 1.0 mg/kg i.v., average of area per animal (± standard deviation).
Where [6] appears, read: Table III, 0.3 mg/kg i.v., average of area per animal.
The mark [7] stands for this setting: Table III, 1.0 mg/kg i.v., average of area per animal.

Results on three compounds are retold here after patent US5821232A, “Synergistic therapeutic compositions and methods” (Pfizer Inc., priority 1995, dated 1998).

Take `C[C@H](CS)C(=O)N1CCC[C@H]1C(=O)O` [captopril]: the AOC-MAP in the assay on Male Hartley guinea pigs (Table I, 0.03 mg/kg i.v., area over curve from MAP change averaged over all animals per dose) is given as -99; with Male Hartley guinea pigs (Table I, 0.10 mg/kg i.v., area over curve from MAP change averaged over all animals per dose), -289; with Male Hartley guinea pigs (setting [2]) it was -1263; in the assay on Male Hartley guinea pigs (setting [3]) it was -3272; in the assay on Male Hartley guinea pigs (Table II, 0.03 mg/kg i.v., average of area per animal (± standard deviation)), -96 (±16); with Male Hartley guinea pigs (Table II, 0.10 mg/kg i.v., average of area per animal (± standard deviation)), -283 (±24). For the same compound, the AOC-MAP with Male Hartley guinea pigs (setting [4]) is -1036 (±145); in the assay on Male Hartley guinea pigs (setting [5]), -3272 (±350); in the assay with Male Hartley guinea pigs (Table III, 0.03 mg/kg i.v., average of area per animal) it was -96 (±16); with Male Hartley guinea pigs (Table III, 0.10 mg/kg i.v., average of area per animal), -269 (±18); in the assay on Male Hartley guinea pigs (setting [6]), -826 (±128); with Male Hartley guinea pigs (setting [7]), -3272 (±350). Moreover, the “hypotensive effect of captopril injection during H77 infusion” value in assay [1] was “small additional hypotensive effect”.
With `CCCCc1nc(Cl)c(CO)n1Cc1ccc(-c2ccccc2-c2nn[nH]n2)cc1` [Dup 753], the AOC-MAP was -125 (±31) in the assay with Male Hartley guinea pigs (setting [6]); -549 (±96) with Male Hartley guinea pigs (setting [7]); -1575 (±281) in the assay on Male Hartley guinea pigs (Table III, 3.0 mg/kg i.v., average of area per animal).
For “[alpha-R[alpha-R*, beta-S*(S*,S*)]-alpha-hydroxy-beta-[[2-[[2 -(4-morpholin-1-carboxamido)-1-oxo-3 -phenylpropyllaminol-3 -methylthio-l-oxo-propyl]amino]-cyclohexanebutanoic acid, isopropyl ester [RI]”, the AOC-MAP with Male Hartley guinea pigs (setting [2]) is listed as -256; with Male Hartley guinea pigs (setting [3]) it was -496; in the assay on Male Hartley guinea pigs (Table I, 3.0 mg/kg i.v., area over curve from MAP change averaged over all animals per dose), -1829; in the assay on Male Hartley guinea pigs (setting [4]), -310 (±47); with Male Hartley guinea pigs (setting [5]), -568 (±158); with Male Hartley guinea pigs (Table II, 3.0 mg/kg i.v., average of area per animal (± standard deviation)), -1990 (±408).
